Read-outs that look alike come from different tables or passages of the source.
Key:
HCT-116 = experiment: Antiproliferative MTT assay, HCT-116 colon cancer cells; assay type: cell-based, human
Method: (§1) The antiproliferative activities of the cinnamyl and benzodioxyl derivatives were assessed against six human cell lines of three different types of cancer (colon, lung, and breast) using the 3-(4,5-dimethylthiazol-2-yl)-2,5-diphenyltetrazolium bromide (MTT) assay at seven concentrations for 48 h. The results are expressed as the IC50 values and are outlined in Table 1.
(§2) The cell lines were obtained from the American Type Culture Collection (ATCC). All the cancer cell lines (HT-29, HCT-116, H1299, HTB-54, MDA-MB-231 and MCF-7) and the nontumorigenic cells (184B5) were maintained in RPMI 1640 medium (Gibco), supplemented with 10% fetal bovine serum (FBS; Gibco) and 1% antibiotics (10.00 units/mL penicillin and 10.00 mg/mL streptomycin; Gibco). Cells were preserved in tissue culture flasks at 37 °C and 5% CO2. Culture medium was replaced every three days.
(§3) The cytotoxic effect of each compound was initially tested at seven different concentrations ranging between 0.5 and 100 µM in the cell lines mentioned above. The cells were seeded (1 × 10^4 cells per well) in 96-well plates and incubated at 37 °C and 5% CO2 for 24 h. After attachment, cells were treated with either dimethyl sulfoxide (DMSO) or increasing concentrations of the corresponding selenocompound for 48 h. The effect of the compounds on cell viability was determined by the MTT assay. In brief, 20 µL of MTT (5 mg/mL) was added to each well 2.5 h prior to experiment termination. At the end of the incubation, the medium was removed, and the formazan crystals were dissolved in 50 µL of DMSO. Absorbance was measured at 550 nm on a microplate reader. IC50 values were calculated using OriginPro 8.5.1. software by nonlinear curve fitting. Selectivity indexes were calculated as the ratio of the IC50 values determined for the nonmalignant and the tumoral cells in the breast cell lines (IC50 (184B5)/IC50 (MDA-MB-231) and IC50 (184B5)/IC50 (MCF-7)). Data were obtained from at least three independent experiments performed in triplicates.

S. faecalis = experiment: Growth curve study, S. faecalis; assay type: cell-based, Streptococcus faecalis; conditions: for Bacterial growth of S. faecalis at 2MIC: highest concentration tested (2MIC), up to 48 h
Method: (§4) To further examine the inhibitory effect of the moderately active compounds 1a and 2a on the growth of the six bacterial strains tested, growth kinetic studies were performed. Thus, the six bacterial strains were exposed to three different concentrations of the test compounds using the MIC values (Table 4) as reference (2MIC, MIC, and MIC/2), while untreated cells were used as negative control. The bacterial growth was recorded by measuring the absorbance at several time points.
(§5) A stock solution of selected compounds 1a and 2a was prepared in DMSO, and different concentrations equivalent to 2MIC, MIC, and MIC/2 in TSB of each compound were dispensed into a 96-well plate with a final volume of 100 µL, while only TSB was added for the control wells. Then, 100 µL of a diluted suspension of bacterial cells in TSB with an optical density of 0.125 measured at 600 nm (inoculum of approximately 10^5 CFU/mL) was added to each well, and the incubation was monitored by spectrophotometric measurements. The absorbance was recorded at 600 nm against time (h) at predetermined periods on a microplate reader. The experiments were performed in triplicate.

S. aureus = experiment: Growth curve study, S. aureus; assay type: cell-based, Staphylococcus aureus; conditions: for Bacterial growth of S. aureus at 2MIC: highest concentration tested (2MIC), up to 48 h
Method: as §4, §5

[1] = tested on: Leishmania infantum promastigotes; experiment: Parasite viability MTT assay, L. infantum promastigotes; assay type: cell-based; conditions: 48 h
Method: (§6) The cytotoxic activities of all the derivatives against Leishmania major and Leishmania infantum promastigotes were studied by the MTT assay after exposing the parasites to five different concentrations of each compound for 48 h. Miltefosine and paromomycin, two currently available drugs for the treatment of leishmaniasis, were used as positive controls.
(§7) L. major (clone VI, MHOM/IL/80/Friendlin) and L. infantum (BCN-150) promastigotes were grown in continuous stirred M199 1X medium (Sigma, St Louis, MO, USA) at 26 °C supplemented with 25 mM HEPES (pH 7.2), 10% heat-inactivated FBS (Gibco, Gaithersburg, MD, USA), 0.1 mM adenine, 0.0005% (w/v) hemin, 0.0001% (w/v) biotin, 100 UI/mL penicillin and […] streptomycin (Gibco, Gaithersburg, MD, USA). Media were changed before each experiment to achieve exponential growth.
(§8) The antileishmanial activity was assessed by the MTT assay as previously described. Briefly, 3 × 10^6 promastigotes of both Leishmania strains were placed into a 96-well plate with supplemented M199 1X medium during their logarithmic growth phase. The parasites were treated with five increasing concentrations of the compounds ranging between 0.1 and 1000 µM at 26 °C for 48 h. At the termination point, 20 µL of MTT (5 mg/mL) was added and further incubated for 4 h. The resultant formazan crystals formed were dissolved in 80 µL of DMSO and the absorbance was measured at 550 nm on a microplate reader. IC50 values were calculated using OriginPro 8.5.1. software by nonlinear curve fitting. Miltefosine and paromomycin were used as reference drugs. Data were obtained from at least three independent experiments performed in triplicates.

[2] = tested on: Leishmania major promastigotes; experiment: Parasite viability MTT assay, L. major promastigotes; assay type: cell-based; conditions: 48 h
Method: as §6, §7, §8

E. coli = experiment: Growth curve study, E. coli; assay type: cell-based, Escherichia coli; conditions: for Bacterial growth of E. coli at 2MIC: highest concentration tested (2MIC), up to 48 h; for Lag phase (delay in bacterial growth), E. coli: lowest concentration evaluated (MIC/2)
Method: as §4, §5

184B5 = experiment: MTT assay in nonmalignant mammary gland cells 184B5; assay type: cell-based; conditions: for IC50: read-out: IC50 184B5
Method: To assess their possible selectivity, the synthesized selenocompounds were then tested in a mammary gland (184B5) nonmalignant cell line, and the selectivity indexes (SI) were determined as the ratio of the IC50 values obtained for the nonmalignant cells and the homolog cancer cells.
as §2, §3

MCF-7 = experiment: Antiproliferative MTT assay, MCF-7 breast cancer cells; assay type: cell-based, human
Method: as §1, §2, §3

C. freundii = experiment: Growth curve study, C. freundii; assay type: cell-based, Citrobacter freundii; conditions: for Bacterial growth of C. freundii at 2MIC: highest concentration tested (2MIC), up to 48 h
Method: as §4, §5

K. pneumoniae = experiment: Growth curve study, K. pneumoniae; assay type: cell-based, Klebsiella pneumoniae; conditions: for Bacterial growth of K. pneumoniae at 2MIC: highest concentration tested (2MIC), up to 48 h
Method: as §4, §5

S. epidermidis = experiment: Growth curve study, S. epidermidis; assay type: cell-based, Staphylococcus epidermidis; conditions: for Bacterial growth of S. epidermidis at sub-MIC concentration: 6.25 µg/mL; for Bacterial growth of S. epidermidis at 2MIC: highest concentration tested (2MIC), up to 48 h
Method: as §4, §5

[3] = Homo sapiens, HCT-116, 48 h, MTT assay, 48 h, mean ± SD, read-out: IC50 HCT-116
[4] = MTT assay, 48 h, mean ± SD, read-out: IC50 HCT-116
[5] = Leishmania infantum, promastigotes, MTT assay, mean ± SD, read-out: IC50 Leishmania infantum
[6] = Leishmania major, promastigotes, MTT assay, mean ± SD, read-out: IC50 Leishmania major
[7] = Homo sapiens, 184B5, 48 h, nontumorigenic cells, MTT assay, 48 h, mean ± SD
[8] = nontumorigenic cells, MTT assay, 48 h, mean ± SD
[9] = Homo sapiens, MCF7, MTT assay, 48 h, mean ± SD, read-out: IC50 MCF-7
[10] = promastigotes, MTT assay, mean ± SD, read-out: IC50 Leishmania infantum
[11] = promastigotes, MTT assay, mean ± SD, read-out: IC50 Leishmania major
[12] = MTT assay, 48 h, mean ± SD, read-out: IC50 MCF-7
[13] = lowest concentration tested, 12.5 µg/mL

SMILES: N#C[Se]C/C=C/c1ccccc1 [Compound 1a, (E)-(3-selenocyanatoprop-1-en-1-yl)benzene]
- IC50 (HCT-116; Homo sapiens, HCT-116, 48 h, read-out: IC50 HCT-116, MTT assay, 48 h, mean ± SD): > 50 µM
- IC50 (HCT-116; read-out: IC50 HCT-116, MTT assay, 48 h, mean ± SD): 68.8 ± 6.3 µM
- melting point: 87 to 89 °C
- Bacterial growth of S. faecalis at 2MIC (S. faecalis): no bacterial growth was detected
- Bacterial growth of S. aureus at 2MIC (S. aureus): no bacterial growth was detected
- IC50 ([1]; Leishmania infantum, read-out: IC50 Leishmania infantum, promastigotes, MTT assay, 48 h, mean ± SD): < 5 µM
- IC50 ([1]; read-out: IC50 Leishmania infantum, promastigotes, MTT assay, mean ± SD): 3.3 ± 1.8 µM
- IC50 ([2]; Leishmania major, read-out: IC50 Leishmania major, promastigotes, MTT assay, 48 h, mean ± SD): < 5 µM
- IC50 ([2]; read-out: IC50 Leishmania major, promastigotes, MTT assay, mean ± SD): 4.6 ± 1.7 µM
- Bacterial growth of E. coli at 2MIC (E. coli): no bacterial growth was detected
- Lag phase (delay in bacterial growth), E. coli (E. coli): 41 h
- IC50 (184B5; Homo sapiens, 184B5, 48 h): 55 ± 6.7 µM
- IC50 (MCF-7; Homo sapiens, MCF7, 48 h, read-out: IC50 MCF-7, MTT assay, 48 h, mean ± SD): > 50 µM
- IC50 (MCF-7; read-out: IC50 MCF-7, MTT assay, 48 h, mean ± SD): 55 ± 2.3 µM
- Bacterial growth of C. freundii at 2MIC (C. freundii): no bacterial growth was detected
- Bacterial growth of K. pneumoniae at the concentrations tested (K. pneumoniae; 2MIC, MIC and MIC/2): no growth was detected
- Bacterial growth of K. pneumoniae at 2MIC (K. pneumoniae): no bacterial growth was detected
- Bacterial growth of S. epidermidis at sub-MIC concentration (S. epidermidis): a delay could be observed
- Bacterial growth of S. epidermidis at 2MIC (S. epidermidis): no bacterial growth was detected

SMILES: C(=C\c1ccccc1)/C[Se][Se]C/C=C/c1ccccc1 [Compound 1b, 1,2-Dicinnamyldiselenide]
- IC50 (HCT-116; [3]): < 40 µM
- IC50 (HCT-116; [4]): 36.6 ± 6.7 µM
- IC50 [1, 5]: 39.4 ± 5.1 µM
- IC50 [2, 6]: 47.6 ± 16 µM
- IC50 (184B5; [7]): > 100 µM
- IC50 184B5 (184B5; [8]): not toxic
- IC50 (MCF-7; [9]): > 100 µM

SMILES: O=C(CC[Se]CC=Cc1ccccc1)[c-]1cccc1.[Fe+2].c1cc[cH-]c1 [Compound 1c, 3-(Cinnamylselanyl)-1-ferrocenylpropan-1-one]
- IC50 (HCT-116; [4]): > 100 µM
- IC50 [1, 10]: 23.2 ± 10.7 µM
- IC50 [2, 11]: 25.8 ± 2.7 µM
- IC50 (184B5; [8]): 24.6 ± 0.4 µM
- IC50 (MCF-7; [12]): 18.5 ± 5.4 µM

SMILES: N#C[Se]Cc1ccc2c(c1)OCO2 [Compound 2a, 5-(Selenocyanatomethyl)benzo[d][1,3]dioxole]
- IC50 (HCT-116; [3]): 69.7 ± 5.3 µM
- melting point: 71 to 73 °C
- Bacterial growth of S. faecalis at 2MIC (S. faecalis): no bacterial growth was detected
- Bacterial growth of S. faecalis at MIC/2 (S. faecalis; [13]): exponential growth of bacteria was observed
- Delay in the bacterial growth, S. aureus (S. aureus; MIC concentration (25 µg/mL)): 44 h
- Bacterial growth of S. aureus at 2MIC (S. aureus): no bacterial growth was detected
- Bacterial growth of S. aureus at MIC/2 (S. aureus; [13]): exponential growth of bacteria was observed
- IC50 [1, 5]: < 5 µM
- IC50 [1, 10]: 3.7 ± 0.1 µM
- IC50 [2, 6]: < 5 µM
- IC50 [2, 11]: 3.3 ± 0.9 µM
- Bacterial growth of E. coli at 2MIC (E. coli): no bacterial growth was detected
- Lag phase (delay in bacterial growth), E. coli (E. coli): 10 h
- IC50 (184B5; [7]): ~50 µM
- IC50 (184B5; [8]): 48.6 ± 2.1 µM
- IC50 (MCF-7; [9]): 59.3 ± 6.5 µM
- Bacterial growth of C. freundii at 2MIC (C. freundii): no bacterial growth was detected
- Log phase, C. freundii (C. freundii; lowest concentration (50 µg/mL)): 43 h
- Log phase before bacterial growth, K. pneumoniae (K. pneumoniae; 25 µg/mL): 28 h
- Log phase before bacterial growth, K. pneumoniae (K. pneumoniae; 50 µg/mL): 42 h
- Bacterial growth of K. pneumoniae at 2MIC (K. pneumoniae): no bacterial growth was detected
- Bacterial growth of S. epidermidis at sub-MIC concentration (S. epidermidis): a delay could be observed
- Bacterial growth of S. epidermidis at 2MIC (S. epidermidis): no bacterial growth was detected

SMILES: O=C(CC[Se]Cc1ccc2c(c1)OCO2)[c-]1cccc1.[Fe+2].c1cc[cH-]c1 [Compound 2c, 3-((Benzo[d][1,3]dioxol-5-ylmethyl)selanyl)-1-ferrocenylpropan-1-one]
- IC50 (HCT-116; [4]): > 100 µM
- IC50 [1, 10]: 7.2 ± 3.6 µM
- IC50 [2, 11]: 11.2 ± 3 µM
- IC50 (184B5; [8]): 50.1 ± 4.5 µM
- IC50 (MCF-7; [12]): 14.8 ± 4.3 µM

— publication PMC9656702, “Unveiling a New Selenocyanate as a Multitarget Candidate with Anticancer, Antileishmanial and Antibacterial Potential” (Molecules, 2022)
